Measurements reported in patent publication US20040067218A1, “Extramedullary adipose tissue cells and use thereof for regenerating hematopoietic and muscular tissue” (priority 2001, published 2004).

Columns and labels:
β-adrenergic receptors = experiment: Spontaneous contractile activity of cardiomyocytes differentiated from vascular stroma cells (β-adrenergic agents); format: cell-based, mouse; conditions: untreated = 100%
Protocol: (§1) Cells of the vascular stroma, isolated as described in Example 1.2, are cultured in the methylcellulose-based semi-solid medium as defined above (Example 1.8).
(§2) The cardiomyocytes are also detected by their spontaneous contractile activity in the presence or absence of agonists or antagonists of muscarinic acetylcholine receptors (carbamylcholine and atropine, respectively) or β-adrenergic receptors (isoproterenol and propranolol, respectively).
(§3) More precisely, 1 ml of DMEM medium containing carbamylcholine (2 μM), atropine (10 μM), isoproterenol (10 μM) or propranolol (40 μM) is added to the methyl-cellulose-based medium. After incubation for 5 min, necessary for diffusion of the molecules, the excess buffer is removed and the cell contractions are counted under the microscope for one minute.
(§4) The values correspond to the mean of 3 independent measurements.

[1] = tested on: muscarinic acetylcholine receptors; experiment: Spontaneous contractile activity of cardiomyocytes differentiated from vascular stroma cells (muscarinic agents); format: cell-based, mouse; conditions: untreated = 100%
Protocol: as §1, §2, §3, §4

`CC(C)NCC(O)COc1cccc2ccccc12` (stereo not shown) [Propranolol, propranolol] gave a Contractions (β-adrenergic receptors; propranolol (40 μM) added with isoproterenol (10 μM), mean of 3) of 100%.
`CN1[C@@H]2CC[C@H]1C[C@@H](OC(=O)C(CO)c1ccccc1)C2` (stereo partly shown) [Atropine, atropine] showed a Contractions ([1]; atropine (10 μM) added with carbamylcholine (2 μM), mean of 3) of 106%.
`C[N+](C)(C)CCOC(N)=O.[Cl-]` [Carbamylcholine, carbamylcholine] gave a Contractions ([1]; carbamylcholine (2 μM) alone, mean of 3 independent measurements) of 53%.
Compound `CC(C)NCC(O)c1ccc(O)c(O)c1` (stereo not shown) [Isoproterenol, isoproterenol] has a Contractions (β-adrenergic receptors; isoproterenol (10 μM) alone, mean of 3 independent measurements) of 160%.
